Results on 1 molecule are retold here after ChEMBL document CHEMBL3351728, “3-alkoxy-pyrrolo[1,2-b]pyrazolines as selective androgen receptor modulators with ideal physicochemical properties for transdermal administration” (J Med Chem, 2014).

Series [1] addresses T1, Androgen receptor (Homo sapiens) (UniProt P10275).
T1 sequence (whole entry): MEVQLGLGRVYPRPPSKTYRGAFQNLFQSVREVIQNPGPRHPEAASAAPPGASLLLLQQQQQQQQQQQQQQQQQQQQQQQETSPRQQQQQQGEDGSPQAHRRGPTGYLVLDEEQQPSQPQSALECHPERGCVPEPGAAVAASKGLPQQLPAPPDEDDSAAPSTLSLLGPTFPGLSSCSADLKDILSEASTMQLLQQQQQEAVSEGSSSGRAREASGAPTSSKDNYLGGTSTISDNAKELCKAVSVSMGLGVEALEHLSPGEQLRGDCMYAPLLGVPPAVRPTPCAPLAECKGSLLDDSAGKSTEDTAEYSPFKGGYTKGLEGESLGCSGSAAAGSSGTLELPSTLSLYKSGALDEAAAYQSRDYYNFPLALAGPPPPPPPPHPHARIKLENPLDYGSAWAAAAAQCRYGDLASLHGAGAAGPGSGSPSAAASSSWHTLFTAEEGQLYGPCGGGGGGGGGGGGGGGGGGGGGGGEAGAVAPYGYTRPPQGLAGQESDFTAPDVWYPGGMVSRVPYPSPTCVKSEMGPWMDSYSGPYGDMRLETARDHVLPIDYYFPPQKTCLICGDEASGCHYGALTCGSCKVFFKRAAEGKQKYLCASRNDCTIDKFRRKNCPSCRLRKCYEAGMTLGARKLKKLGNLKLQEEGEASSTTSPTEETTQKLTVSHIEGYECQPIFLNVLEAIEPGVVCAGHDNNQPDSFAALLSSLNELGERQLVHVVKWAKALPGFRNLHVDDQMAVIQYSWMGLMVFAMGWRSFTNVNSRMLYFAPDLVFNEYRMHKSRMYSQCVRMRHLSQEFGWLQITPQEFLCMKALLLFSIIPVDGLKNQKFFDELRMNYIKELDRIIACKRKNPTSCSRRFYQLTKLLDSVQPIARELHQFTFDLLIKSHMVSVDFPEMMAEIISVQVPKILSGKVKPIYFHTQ
The series is described as follows: Agonist activity at human androgen receptor expressed in mouse C2C12 cells by androgen-specific response element-driven luciferase reporter gene assay relative to DHT. It counts as cell-based. (In general: In a reporter assay the amount or activity of a reporter protein is the signal.)

Series [2] in a line: Thermodynamic solubility of the compound at pH 7.4. It counts as physicochemical. The conditions noted are these: buffer, read-out: Therm_solubility.
For another series, the system named is Zone of skin. Nature of the series: Skin permeability in human cadaver skin in Franz diffusion cell system. Format: ADME.
Series [3] is described as follows: Skin permeability by silicone and isopropyl myristate (70:30) containing artificial membranes based skin PAMPA method. Format: ADME. (In general: The PAMPA barrier holds no transporters, so it reflects passive diffusion.)
Series [4] is described as follows: Skin drug retention by silicone and isopropyl myristate (70:30) containing artificial membranes based skin PAMPA method.
The target of the next series is T2, Androgen receptor (Homo sapiens, UniProt P10275).
T2 sequence (P10275 whole entry): T1 sequence (whole entry)
Nature of the series: Displacement of [3H]DHT from androgen receptor in human MDA-MB-435 cells after 30 mins. It counts as cell-based. (In general: Loss of bound radioactivity is the signal in a displacement assay; it reports binding, not function.)

In a further series the target is T3, Estrogen receptor (Homo sapiens, UniProt P03372).
T3 sequence (P03372 whole entry): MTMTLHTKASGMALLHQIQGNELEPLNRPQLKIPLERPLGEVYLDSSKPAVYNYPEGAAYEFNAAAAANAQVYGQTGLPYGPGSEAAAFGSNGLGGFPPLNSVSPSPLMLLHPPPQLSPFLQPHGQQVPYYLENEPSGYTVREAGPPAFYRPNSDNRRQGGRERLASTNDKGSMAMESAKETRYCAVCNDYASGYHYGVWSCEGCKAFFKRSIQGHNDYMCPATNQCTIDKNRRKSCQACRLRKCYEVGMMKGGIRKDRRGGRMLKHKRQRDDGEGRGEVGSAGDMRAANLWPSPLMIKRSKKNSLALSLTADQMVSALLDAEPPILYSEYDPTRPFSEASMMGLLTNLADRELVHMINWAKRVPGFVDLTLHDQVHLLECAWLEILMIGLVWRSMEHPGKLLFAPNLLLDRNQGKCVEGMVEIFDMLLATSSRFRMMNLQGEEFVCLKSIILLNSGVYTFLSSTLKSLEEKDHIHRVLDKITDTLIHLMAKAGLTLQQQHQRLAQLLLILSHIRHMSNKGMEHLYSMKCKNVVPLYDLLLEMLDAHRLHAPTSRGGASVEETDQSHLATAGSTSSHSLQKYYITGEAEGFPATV
The series is described as follows: Binding affinity to estrogen receptor (unknown origin) incubated for 4 hrs.

Series [5] is described as follows: Terminal half life in Wistar rat at 1 mg/kg, iv. It counts as ADME, organism-based. Also on record: dose 1 mg/kg, route intravenous. The conditions noted are these: in vivo, read-out: beta t1/2 (converted).
The nature of series [6]: Volume of distribution in Wistar rat at 1 mg/kg, iv. The settings on record: in vivo. Also on record: dose 1 mg/kg, route intravenous. Format: ADME, organism-based.
Series [7] is described as follows: AUC (0 to infinity) in Wistar rat at 1 mg/kg, iv. Format: ADME, organism-based. On the set-up: dose 1 mg/kg, route intravenous, time infinity. The conditions noted are these: plasma.
A short description of series [8]: Tmax in Wistar rat at 0.5 mg/kg, sc. Format: ADME, organism-based. On the set-up: dose 0.5 mg/kg, route subcutaneous. The conditions noted are these: in vivo.
The subject of series [9] is Rattus norvegicus. Nature of the series: Androgenic activity in orchidectomized rat assessed as stimulation of prostate weight treated at 0.3 mg/kg, sc once daily for 14 days by Hershberger assay. Format: organism-based, Prostate gland. On the set-up: dose 0.3 mg/kg, route subcutaneous. The settings on record: in vivo, 336 h.
The nature of series [10]: Cmax in Wistar rat at 0.5 mg/kg, sc. The settings on record: in vivo. Also on record: dose 0.5 mg/kg, route subcutaneous. Format: ADME, organism-based.
Series [11] relates to Rattus norvegicus. Nature of the series: AUC (0 to 48 hrs) in Wistar rat at 0.5 mg/kg, sc. It counts as ADME, organism-based, Plasma. On the set-up: time < 48 hr, dose 0.5 mg/kg, route subcutaneous. The settings on record: in vivo.
In series [12] the test system is Rattus norvegicus. Nature of the series: Bioavailability in Wistar rat at 0.5 mg/kg, sc. It counts as ADME, organism-based. The settings on record: in vivo.
The subject of series [13] is Rattus norvegicus. The series is described as follows: Anabolic activity in orchidectomized rat assessed as stimulation of bulbocavernosus/levator ani muscle weight treated at 0.3 mg/kg, sc once daily for 14 days by Hershberger assay. Format: functional, organism-based. Also on record: dose 0.3 mg/kg.
Series [14] has as its system Rattus norvegicus. Nature of the series: Anabolic activity in orchidectomized rat assessed as stimulation of bulbocavernosus/levator ani muscle weight treated subcutaneously once daily for 14 days by Hershberger assay. It counts as functional.

≈ marks a conversion by molar mass, not a printed value. Calls of active or inactive are those of the source. No cut-off for these calls is given here.

Usually Emax stands for the size of the effect at its maximum, as opposed to the concentration needed. A word on the IC50: it is the concentration that inhibits the measured activity by half. As usually defined, the Vd is the apparent volume that relates the amount in the body to the concentration in plasma or blood. Higher therefore signals extensive tissue distribution. A word on the AUC(0-inf): it is total exposure, with the tail of the curve extrapolated. Read a high AUC(0-inf) as high exposure. As usually defined, the Tmax is the time from dosing to the highest level. One may read the Cmax as the highest concentration seen after dosing. The AUC is the area under the concentration-time curve, a measure of exposure. For orientation: ED50 means the midpoint of the dose-response relation. `CO[C@@H]1C(c2ccc(C#N)c(Cl)c2C)=NN2CC[C@H](O)[C@@H]12` registered an Emax in series [1] of 97%. For the same molecule, in series [2], the solubility thermodynamic is 1300 µg/mL (≈ 4.25 mM). The Jss in the series on Zone of skin stood at 2 ug/cm2.hr. Moreover, the permeability result in series [3] is recorded as “permeable”. The Drug uptake result in [4] was “inactive”. The values for the 50% inhibitory concentration (IC50) at Androgen receptor and on Estrogen receptor were 0.7 nM and above 1000 nM, respectively. Moreover, the half-life in series [5] is 5.7 h. The volume of distribution (Vd) in series [6] was 4.6 L/kg. Also, the total exposure AUC(0-inf) in series [7] was found to be 708 ng·h/mL. Further, the Tmax in series [8] came to 1.5 h. In addition, the results for the Activity entry with Rattus norvegicus [9] and in the series on Rattus norvegicus [14] were “Non-toxic” and “Dose-dependent effect”, respectively. In addition, the Cmax in series [10] is 79 ng/mL. In the series with Rattus norvegicus [11], this molecule had an AUC of 670 ng·h/mL. The same molecule displayed a F in the series with Rattus norvegicus [12] of 75%. In the series with Rattus norvegicus [13], the result was Active. In the series with Rattus norvegicus [14] (sc, 336 h), the ED50 amounted to 0.07 mg/kg.
